In US8858962B2, “Adjuvant or pharmaceutical preparation for transdermal or transmucosal administration” (priority 2005, dated 2014):

What was measured:
BALB/c mice = experiment: Skin irritation score, intradermal vs transdermal administration; assay type: in vivo
[1] = tested on: OVA-specific IgG antibody; experiment: OVA-specific IgG antibody titer by ELISA; OVA intradermal plus adjuvant transdermal; assay type: in vivo, BALB/c mice; details: for Antibody titer (×10^4): OVA 10 ug/head intradermal, 25 uL adjuvant transdermal, dosing at 0, 2, 4 W, 5 W data; for antigen IgG immune response: intradermal ovalbumin plus transdermal adjuvant on intact skin
Description: OVA was dissolved in physiological saline and adjusted to give 10 ug/head, and for an OVA-only group 25 uL of the OVA aqueous solution was intradermally administered. For groups in which there was combined use with various types of adjuvant, immediately after the OVA solution was intradermally administered, 25 uL of the adjuvant solution was transdermally administered (coated) via the skin surface of the abdomen. Administration was carried out at 0, 2, and 4 W, blood was collected at 2, 4, and 5 W, and the OVA-specific IgG antibody titer after 2, 4, and 5 W was measured by ELISA.

MHC Class II molecules = experiment: Intensity of expression of MHC Class II molecules by lymph cells after transdermal adjuvant (flow cytometry, FIG. 1); assay type: in vivo, BALB/c mice; details: for lymph cell count: 50 uL of acetone solution (50%) on shaved abdomen, lymph node removed 5 days later
Description: On the other hand, for a group for which an antigen hapten was used in combination, 50 uL of a 1:1 mixture of an FITC solution (5 mg/mL in acetone) and a solution of the adjuvant was transdermally administered to the abdomen. 5 days later, lymph node (cervix, groin) was removed, and the intensity of expression of MHC Class II molecules by lymph cells was analyzed by flow cytometry (FIG. 1).

[2] = tested on: OVA-specific IgG antibody; experiment: OVA-specific IgG antibody titer; microneedles coated with antigen emulsion (FIG. 5); assay type: in vivo, BALB/c mice; details: OVA 0.1 mg/patch; microneedles coated with emulsion 1:1:0.01 (Tween 80); punctured 2 hours
Description: Furthermore, for microneedle groups (OVA+lauryl alcohol or oleyl alcohol) microneedle needles were coated with an emulsion [antigen solution:olive oil or lauryl alcohol:surfactant (Tween 80)=1:1:0.01], and puncturing was carried out for 2 hours. Administering was carried out at 0, 2, and 4 W, blood was collected at 2, 4, and 5 W, and the OVA-specific IgG antibody titer was measured by ELISA.

[3] = tested on: OVA-specific IgG antibody; experiment: OVA-specific IgG antibody titer; OVA/LA emulsion with microneedle, skin abrasion or iontophoresis (FIG. 2); assay type: in vivo, BALB/c mice; details: OVA 100 ug/head; OVA solution:LA:Tween 20 1:1:0.01; IP, MN, Skin Prep modes; 4 W data
Description: OVA (ovalbumin antigen) was adjusted to give 100 ug/head, for an OVA-only group an OVA aqueous solution was applied, and for a group in which lauryl alcohol (LA) was used in combination, an emulsified solution formed by mixing the OVA solution, LA and Tween 20 (emulsifier) at 1:1:0.01 was used. For the microneedle group, the pre-shaved abdomen skin was punctured with 1 cm^2 of microneedles (needle length about 200 um, 400 needles/cm^2), and immediately after this 50 uL of the above-mentioned emulsion solution was applied. For the skin abrasion treatment group, instead of the microneedles, the skin was abraded 5 times with 3M RED Dot™ 2236 and 50 uL of the emulsion solution was applied. For the iontophoresis group, after the shaven abdomen skin was coated with 50 uL of the emulsion solution, an iontophoresis preparation (nonwoven cloth preparation: Ag, Ag/AgCl 1 cm^2) formed by impregnating a nonwoven cloth with physiological saline was affixed to the coated site, and direct current (0.4 mA/patch) was applied for 1 hour. Administration was carried out at 0, 2, and 4 W, blood was collected at 2, 4, and 5 W, and the OVA-specific IgG antibody titer was measured by ELISA.

[4] = tested on: OVA-specific IgG antibody; experiment: OVA-specific IgG antibody titer; antigen-coated microneedles with LA applied in advance (FIG. 3); assay type: in vivo, hairless rats; details: OVA 2 mg/patch on coated microneedles, punctured 2 hours
Description: OVA was adjusted to give 2 mg/patch, a needle portion of microneedles was coated with the antigen and 5% polyvinyl alcohol liquid, and for a microneedle group the abdomen of 7 to 8 W male hairless rats was punctured for 2 hours with physiological saline dropped onto the skin side. For a microneedle+lauryl alcohol group, LA was applied in advance, physiological saline was dropped onto the skin side, and it was punctured for 2 hours with microneedle needles coated with the antigen and 5% polyvinyl alcohol liquid. Administration was carried out at 0, 2, and 4 W, blood was collected at 2, 4, and 5 W, and the OVA-specific IgG antibody titer was measured by ELISA.

[5] = tested on: OVA-specific IgG antibody; experiment: OVA-specific IgG antibody titer; microneedles coated with antigen emulsion (FIG. 4); assay type: in vivo, hairless rats; details: OVA 2 mg/patch; microneedles coated with emulsion antigen:oil or alcohol:Tween 80 1:1:0.01; punctured 2 hours
Description: OVA was adjusted to give 2 mg/patch, and for a microneedle group (OVA+5% polyvinyl alcohol), the abdomen of 7 to 8 W male hairless rats was punctured for 2 hours with a needle portion of microneedles coated with antigen and 5% polyvinyl alcohol liquid [mixed at antigen solution:10% polyvinyl alcohol=1:1]. Furthermore, for microneedle groups (OVA+olive oil) or (OVA+lauryl alcohol), microneedle needles were coated with an emulsion [antigen solution:olive oil or lauryl alcohol:surfactant (Tween 80)=1:1:0.01], and puncturing was carried out for 2 hours. Administration was carried out at 0, 2, and 4 W, blood was collected at 2, 4, and 5 W, and the OVA-specific IgG antibody titer was measured by ELISA.

OVA = experiment: Effect of LA adjuvant in administration via oral mucous membrane, antibody titer (FIG. 7); assay type: in vivo, BALB/c mice; details: OVA 2500 ug/head; antigen solution:LA:Tween 80 8:2:0.05 and 5:5:0.05; blood after 2 weeks

Row | Compound | skin irritation on transdermal administration (BALB/c mice) | Antibody titer (×10^4) [1] | lymph cell count (MHC Class II molecules) | other results
1 | polyethylene glycol monolaurate | did not cause skin irritation | 0.9 ×10^4 | – | –
2 | CCCCCCCCCCC(CO)CCCCCCCC (centres unmarked) [Octyldodecanol, octyldodecanol] | did not cause skin irritation | 0.6 ×10^4 | – | –
3 | CCCCCCCC/C=C\CCCCCCCC(=O)O [oleic acid] | – | – | remarkable increase | –
4 | CCCCCCCC/C=C\CCCCCCCCO [Oleyl alcohol, oleyl alcohol] | did not cause skin irritation | 2.1 ×10^4 | remarkable increase | antigen IgG immune response [1]: highest immune response; OVA-specific IgG antibody titer [2]: increased remarkably
5 | sorbitan monolaurate | did not cause skin irritation | – | remarkable increase | –
6 | CCCCCCCCCCCCO [Lauryl alcohol, lauryl alcohol] | did not cause skin irritation | 2.1 ×10^4 | remarkable increase | adjuvant effect in transdermal administration (MHC Class II molecules; comparison among adjuvants): most outstanding adjuvant effect; antigen IgG immune response [1]: highest immune response; OVA-specific IgG antibody titer [3]: significant increase; OVA-specific IgG antibody titer [4]: increased,remarkably; OVA-specific IgG antibody titer [5]: increased remarkably; OVA-specific IgG antibody titer [2]: increased remarkably; antibody titer, oral mucous membrane administration (OVA): increased in response to the LA concentration
7 | sorbitan monooleate | – | – | remarkable increase | –
8 | CC(C)CCCCCCCCCCCCCCCO [Isostearyl alcohol, isostearyl alcohol] | did not cause skin irritation | 1.3 ×10^4 | remarkable increase | –
